In patent US9884832B2 (priority 2011, dated 2018):

What follows are molecules tested against AM2 S31 (wild-type serine at position 31 in the M2 protein), influenza virus A/Udorn/72 (Influenza A virus, UniProt P0DOF5) (assay: cell-based). Settings: 100 uM; Xenopus oocytes; activity range class; read-out: S31 OOcyte Inhibition at 100 uM (%).
Sequence of AM2 S31 (wild-type serine at position 31 in the M2 protein), influenza virus A/Udorn/72 (P0DOF5 whole entry, looked up): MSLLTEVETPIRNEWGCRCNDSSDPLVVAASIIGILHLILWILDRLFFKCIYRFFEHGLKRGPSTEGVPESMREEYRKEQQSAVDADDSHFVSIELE

**Q.** With `Brc1ccc(CNC23CC4CC(CC(C4)C2)C3)o1` [Example 87a, Adamantan-1-yl-(5-bromo-furan-2-ylmethyl)-amine] as the molecule, how does the inhibition at 100 µM read?
**A.** 31 to 95%

**Q.** For `c1csc(CNC23CC4CC(CC(C4)C2)C3)c1` [Example 70a, Adamantan-1-yl-thiophen-2-ylmethyl-amine], which inhibition at 100 µM is on record?
**A.** 31 to 95%

**Q.** With `C(=C\c1ccccc1)/CNC12CC3CC(CC(C3)C1)C2` [Example 199a, N-cinnamyladamantan-1-amine] as the molecule, how does the inhibition at 100 µM read?
**A.** 0 to 30%

**Q.** Which inhibition at 100 µM does the source give for `c1cc(-c2ccc(CNC34CC5CC(CC(C5)C3)C4)o2)[nH]n1` [Example 162a, N-((5-(1H-pyrazol-5-yl)furan-2-yl)methyl)adamantan-1-amine] here?
**A.** 0 to 30%

**Q.** How did the inhibition at 100 µM turn out when `FC(F)(F)c1ccc(-c2nc(CNC34CC5CC(CC(C5)C3)C4)no2)cc1` [Example 129a, N-((5-(4-(trifluoromethyl)phenyl)-1,2,4-oxadiazol-3-yl)methyl)adamantan-1-amine] was run?
**A.** 0 to 30%

**Q.** How did the inhibition at 100 µM turn out when `c1csc(-c2ccc(CNC34CC5CC(CC(C5)C3)C4)cc2)c1` [Example 29a, N-(4-(Thiophen-2-yl)benzyl)adamantan-1-amine methanesulfonate] was run?
**A.** 0 to 30%

**Q.** Which inhibition at 100 µM does the source give for `CC(C)c1nc(CNC23CC4CC(CC(C4)C2)C3)no1` [Example 102a, N-((5-isopropyl-1,2,4-oxadiazol-3-yl)methyl)adamantan-1-amine] here?
**A.** 0 to 30%

**Q.** `OC1CCC(CNC23CC4CC(CC(C4)C2)C3)CC1` (stereo not shown) [Example 170a, 4-(Adamantan-1-ylaminomethyl)-cyclohexanol] was tested. Which inhibition at 100 µM did it give?
**A.** 0 to 30%

**Q.** With `c1csc(C2=NOC(CNC34CC5CC(CC(C5)C3)C4)C2)c1` (stereo not shown) [Example 168a, N-((3-(thiophen-2-yl)-4,5-dihydroisoxazol-5-yl)methyl)adamantan-1-amine] as the molecule, how does the inhibition at 100 µM read?
**A.** 0 to 30%

**Q.** For `Brc1ccc(-c2cc(CNC34CC5CC(CC(C5)C3)C4)on2)cc1` [Example 117a, N-((3-(4-bromophenyl)isoxazol-5-yl)methyl)adamantan-1-amine], which inhibition at 100 µM is on record?
**A.** 0 to 30%

**Q.** How did the inhibition at 100 µM turn out when `C[Si](C)(C)c1ccc(CNC23CC4CC(CC(O)(C4)C2)C3)cc1` [Example 193a, (1s,3r,5R,7S)-3-((4-(trimethylsilyl)benzyl)amino)adamantan-1-ol] was run?
**A.** 0 to 30%

**Q.** Which inhibition at 100 µM does the source give for `c1ccc2nc(CNC34CC5CC(CC(C5)C3)C4)ccc2c1` [Example 56a, Adamantan-1-yl-quinolin-2-ylmethyl-amine] here?
**A.** 31 to 95%

**Q.** With `Cc1cc(CNC23CC4CC(CC(C4)C2)C3)sc1Br` [Example 77a, N-((5-bromo-4-methylthiophen-2-yl)methyl)adamantan-1-amine] as the molecule, how does the inhibition at 100 µM read?
**A.** 31 to 95%

**Q.** `Cc1oc(-c2cccs2)nc1CNC12CC3CC(CC(C3)C1)C2` [Example 145a, N-((5-methyl-2-(thiophen-2-yl)oxazol-4-yl)methyl)adamantan-1-amine] was tested. Which inhibition at 100 µM did it give?
**A.** 0 to 30%

**Q.** For `Brc1cnc(CNC23CC4CC(CC(C4)C2)C3)s1` [Example 86a, Adamantan-1-yl-(5-bromo-thiazol-2-ylmethyl)-amine], which inhibition at 100 µM is on record?
**A.** 0 to 30%

**Q.** How did the inhibition at 100 µM turn out when `OC12CC3CC(C1)CC(NCc1cc4sccc4s1)(C3)C2` [Example 192a, 3-[(Thieno[3,2-b]thiophen-2-ylmethyl)-amino]-adamantan-1-ol] was run?
**A.** 0 to 30%

**Q.** With `COc1ccsc1CNC12CC3CC(CC(C3)C1)C2` [Example 74a, Adamantan-1-yl-(3-methoxy-thiophen-2-ylmethyl)-amine] as the molecule, how does the inhibition at 100 µM read?
**A.** 31 to 95%

**Q.** Which inhibition at 100 µM does the source give for `Brc1cc(CNC23CC4CC(CC(C4)C2)C3)on1` [Example 94a, N-((3-bromoisoxazol-5-yl)methyl)adamantan-1-amine] here?
**A.** 0 to 30%

**Q.** For `c1cc(-c2csc(CNC34CC5CC(CC(C5)C3)C4)c2)cs1` [Example 152a, N-([3,3′-bithiophen]-5-ylmethyl)adamantan-1-amine], which inhibition at 100 µM is on record?
**A.** 0 to 30%

**Q.** For `Brc1ccc(CNC23CC4CC(CC(C4)C2)C3)s1` [Example 81a, N-((5-Bromothiophen-2-yl)methyl)adamantan-1-amine], which inhibition at 100 µM is on record?
**A.** 31 to 95%

**Q.** For `c1ccc(C2=NOC(CNC34CC5CC(CC(C5)C3)C4)C2)cc1` (stereo not shown) [Example 167a, N-((3-phenyl-4,5-dihydroisoxazol-5-yl)methyl)adamantan-1-amine], which inhibition at 100 µM is on record?
**A.** 0 to 30%

**Q.** How did the inhibition at 100 µM turn out when `COc1ccc2cc(CNC34CC5CC(CC(C5)C3)C4)[nH]c2c1` [Example 186a, N-((6-methoxy-1H-indol-2-yl)methyl)adamantan-1-amine] was run?
**A.** 0 to 30%

**Q.** For `c1csc(CNC23CC4CC(CC(C4)C2)C3)n1` [Example 71a, Adamantan-1-yl-thiazol-2-ylmethyl-amine], which inhibition at 100 µM is on record?
**A.** 31 to 95%

**Q.** Which inhibition at 100 µM does the source give for `OC12CC3CC(C1)CC(NCc1cccs1)(C3)C2` [Example 187a, 3-[(Thiophen-2-ylmethyl)-amino]adamantan-1-ol] here?
**A.** 0 to 30%

Same assay, conditions: Table 1; 100 uM; Xenopus oocytes, pH 5.5, -20 mV; read-out: S31 OOcyte Inhibition at 100 uM (%)

**Q.** How did the inhibition at 100 µM turn out when `Oc1ccc(/C=N/C23CC4CC(CC(C4)C2)C3)c(O)c1` [Example 7] was run?
**A.** 31 to 95%

**Q.** For `c1ccc2sc(CNC34CC5CC(CC(C5)C3)C4)cc2c1` [Example 88, Adamantan-1-yl-benzo[b]thiophen-2-ylmethyl-amine], which inhibition at 100 µM is on record?
**A.** 0 to 30%

**Q.** How did the inhibition at 100 µM turn out when `NC(=O)COc1ccc(CNC23CC4CC(CC(C4)C2)C3)cc1` [Example 39, 2-(4-((Adamantan-1-ylamino)methyl)phenoxy)acetamide] was run?
**A.** 0 to 30%

**Q.** Which inhibition at 100 µM does the source give for `Oc1cc(O)c(CNC23CC4CC(CC(C4)C2)C3)c(O)c1` [Example 70, 2-(Adamantan-1-ylaminomethyl)-benzene-1,3,5-triol] here?
**A.** 0 to 30%

**Q.** With `COc1ccc(CNC23CC4CC(CC(C4)C2)C3)c(OC)c1` [Example 59, Adamantan-1-yl-(2,4-dimethoxy-benzyl)-amine] as the molecule, how does the inhibition at 100 µM read?
**A.** 0 to 30%

**Q.** With `CC(C)(C)CC(C)(C)NCc1ccc(O)cc1O` [Example 112, 4-[(1,1,3,3-Tetramethyl-butylamino)-methyl]-benzene-1,3-diol] as the molecule, how does the inhibition at 100 µM read?
**A.** 31 to 95%

**Q.** Which inhibition at 100 µM does the source give for `N=C(Nc1ccc(O)cc1)C12CC3CC(CC(C3)C1)C2` [Example 5] here?
**A.** 31 to 95%

**Q.** How did the inhibition at 100 µM turn out when `c1c(CNC2C3CC4CC(C3)CC2C4)nc2n1CCS2` (stereo not shown) [Example 105, Adamantan-2-yl-(2,3-dihydro-imidazo[2,1-b]thiazol-6-ylmethyl)-amine] was run?
**A.** 31 to 95%

**Q.** With `Cc1nn2cc(CNC3C4CC5CC(C4)CC3C5)nc2s1` (stereo not shown) [Example 106, Adamantan-2-yl-(2-methyl-imidazo[2,1-b][1,3,4]thiadiazol-6-ylmethyl)-amine] as the molecule, how does the inhibition at 100 µM read?
**A.** 0 to 30%

**Q.** For `Oc1cc(F)c(CNC23CC4CC(CC(C4)C2)C3)c(F)c1` [Example 69, 4-(Adamantan-1-ylaminomethyl)-3,5-difluoro-phenol], which inhibition at 100 µM is on record?
**A.** 31 to 95%

**Q.** How did the inhibition at 100 µM turn out when `c1cc(-c2ccc(CNC34CC5CC(CC(C5)C3)C4)cc2)co1` [Example 42, N-(4-(Furan-3-yl)benzyl)adamantan-1-amine] was run?
**A.** 0 to 30%

**Q.** With `Oc1cc(OCc2ccccc2)ccc1CNC12CC3CC(CC(C3)C1)C2` [Example 57, 2-(Adamantan-1-ylaminomethyl)-5-benzyloxy-phenol] as the molecule, how does the inhibition at 100 µM read?
**A.** 31 to 95%

**Q.** For `c1cc(CNC23CC4CC(CC(C4)C2)C3)ccn1` [Example 73, Adamantan-1-yl-pyridin-4-ylmethyl-amine], which inhibition at 100 µM is on record?
**A.** 31 to 95%

**Q.** With `COC(=O)C(Cc1cnc[nH]1)NCC12CC3CC(CC(C3)C1)C2` (stereo not shown) [Example 3, 2-[(Adamantan-1-ylmethyl)-amino]-3-(3H-imidazol-4-yl)-propionic acid methyl ester] as the molecule, how does the inhibition at 100 µM read?
**A.** 0 to 30%

**Q.** With `CC(C)(C)OC(=O)Nc1ccc(CNC23CC4CC(CC(C4)C2)C3)cc1` [Example 12, [4-(Adamantan-1-ylaminomethyl)-phenyl]carbamic acid tert-butyl ester] as the molecule, how does the inhibition at 100 µM read?
**A.** 0 to 30%

Same assay, conditions: Table 3; 100 uM; Xenopus oocytes, pH 5.5, -20 mV; read-out: S31 OOcyte Inhibition at 100 uM (%)

**Q.** How did the inhibition at 100 µM turn out when `CC(C)Cc1nc(CNC23CC4CC(CC(C4)C2)C3)no1` [Example 22b, N-((5-isobutyl-1,2,4-oxadiazol-3-yl)methyl)adamantan-1-amine] was run?
**A.** 0 to 30%

**Q.** For `COc1ccc(-c2cc(CNC34CC5CC(CC(C5)C3)C4)no2)c(OC)c1` [Example 41b, N-((5-(2,4-dimethoxyphenyl)isoxazol-3-yl)methyl)adamantan-1-amine], which inhibition at 100 µM is on record?
**A.** 0 to 30%

**Q.** For `Cc1cccc(-c2ncc(CNC34CC5CC(CC(C5)C3)C4)cn2)c1` [Example 63b, N-((2-mtolylpyrimidin-5-yl)methyl)adamantan-1-amine], which inhibition at 100 µM is on record?
**A.** 0 to 30%

**Q.** With `Clc1ccccc1-c1cc(CNC23CC4CC(CC(C4)C2)C3)no1` [Example 45b, N-((5-(2-chlorophenyl)isoxazol-3-yl)methyl)adamantan-1-amine] as the molecule, how does the inhibition at 100 µM read?
**A.** 0 to 30%

**Q.** For `CCCSc1ncc(CNC23CC4CC(CC(C4)C2)C3)cn1` [Example 62b, N-((2-propylthiopyrimidin-5-yl)methyl)adamantan-1-amine], which inhibition at 100 µM is on record?
**A.** 0 to 30%

**Q.** Which inhibition at 100 µM does the source give for `c1cc2[nH]c(CNC34CC5CC(CC(C5)C3)C4)cc2o1` [Example 78b, Adamantan-1-yl-(4H-furo[3,2-b]pyrrol-5-ylmethyl)-amine] here?
**A.** 31 to 95%

**Q.** Which inhibition at 100 µM does the source give for `Oc1cc(I)ccc1CNC12CC3CC(CC(C3)C1)C2` [Example 2b] here?
**A.** 31 to 95%

**Q.** For `c1cnc2[nH]c(CNC34CC5CC(CC(C5)C3)C4)nc2c1` [Example 82b, N-((3H-imidazo[4,5-b]pyridin-2-yl)methyl)adamantan-1-amine], which inhibition at 100 µM is on record?
**A.** 0 to 30%

**Q.** How did the inhibition at 100 µM turn out when `COc1cccc(-c2cc(CNC34CC5CC(CC(C5)C3)C4)no2)c1` [Example 39b, N-((5-(3-methoxyphenyl)isoxazol-3-yl)methyl)adamantan-1-amine] was run?
**A.** 0 to 30%

**Q.** With `Fc1cc(F)cc(-c2cc(CNC34CC5CC(CC(C5)C3)C4)no2)c1` [Example 33b, N-((5-(3,5-difluorophenyl)isoxazol-3-yl)methyl)adamantan-1-amine] as the molecule, how does the inhibition at 100 µM read?
**A.** 0 to 30%

**Q.** For `CSc1ccccc1-c1ccc(CNC23CC4CC(CC(C4)C2)C3)cc1` [Example 66b, Adamantan-1-yl-(2′-methylsulfanyl-biphenyl-4-ylmethyl)-amine], which inhibition at 100 µM is on record?
**A.** 0 to 30%

**Q.** With `c1csc(-c2ccc(CNC34CC5CC(CC(C5)C3)C4)nn2)c1` [Example 71b, Adamantan-1-yl-(6-thiophen-2-yl-pyridazin-3-ylmethyl)-amine] as the molecule, how does the inhibition at 100 µM read?
**A.** 0 to 30%

**Q.** With `c1c(CNC23CC4CC(CC(C4)C2)C3)noc1C1CCCCC1` [Example 32b, N-((5-cyclohexylisoxazol-3-yl)methyl)adamantan-1-amine] as the molecule, how does the inhibition at 100 µM read?
**A.** 0 to 30%
